Laboratory results from ChEMBL document CHEMBL3779887, “Robenidine Analogues as Gram-Positive Antibacterial Agents” (J Med Chem, 2016).
≈ marks a conversion by molar mass, not a printed value.

Assays:
Assay type in all cases: functional
[1] = test system: Pseudomonas aeruginosa; experiment: Antibacterial activity against Pseudomonas aeruginosa ATCC 27853 after 20 to 24 hrs
[2] = test system: Staphylococcus aureus; experiment: Antibacterial activity against methicillin-resistant Staphylococcus aureus after 20 to 24 hrs
[3] = test system: Enterococcus; experiment: Antibacterial activity against vancomycin-resistant Enterococcus after 20 to 24 hrs
[4] = test system: Escherichia coli; experiment: Antibacterial activity against Escherichia coli ATCC 25922 after 20 to 24 hrs

Compound | MIC [1] | MIC [2] | MIC [3] | MIC [4]
N=C(N/N=C/c1ccc(/C=C/C(=O)O)cc1)N/N=C/c1ccc(/C=C/C(=O)O)cc1 | > 400 µM | > 400 µM | > 400 µM | > 400 µM
COc1cc(/C=N/NC(=N)N/N=C/c2cc(Br)c(OC)c(OC)c2)cc(Br)c1OC | > 400 µM | > 400 µM | > 400 µM | > 400 µM
Cc1cccc(/C=N/NC(=N)N/N=C/c2cccc(C)c2)c1 | > 400 µM | 24.4 µM (≈ 7.16 µg/mL) | 24.4 µM (≈ 7.16 µg/mL) | > 400 µM
N=C(N/N=C/c1cc(O)c(O)cc1O)N/N=C/c1cc(O)c(O)cc1O | > 400 µM | 161 µM (≈ 58.2 µg/mL) | 322 µM (≈ 116 µg/mL) | > 400 µM
N=C(N/N=C/c1ccc(O)c(O)c1O)N/N=C/c1ccc(O)c(O)c1O | > 400 µM | 161 µM (≈ 58.2 µg/mL) | 161 µM (≈ 58.2 µg/mL) | > 400 µM
